Consider 16 compounds from PubChem BioAssay (NCI).

Experiment in all cases: growth of human tumour cells (NCI), 48 h
Test [1] deals with ACHN renal.
The subject of test [2] is CCRF-CEM leukemia.
The test system of test [3] is DU-145 prostate.
For test [4], the system named is HCC-2998 colon.
In test [5] the test system is IGROV1 ovarian.
Test [6] concerns KM12 colon.
For test [7], the system named is MDA-MB-231 breast.
The subject of test [8] is MDA-MB-435.
In test [9] the test system is MOLT-4 leukemia.
Test [10] concerns NCI-H460 lung.
The test system of test [11] is NCI-H522 lung.
Test [12] concerns SK-OV-3 ovarian.
Test [13] relates to UO-31 renal.

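Compound exposure: 48 hours, 5 concentrations, 96-well plates. TGI is the concentration that stops growth completely.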 Bounds are passed on as bounds.

As for `C/C1=C\CC[C@@]2(C)O[C@@H]2C[C@@H]2[C@H](C/C(C)=C/CC1)OC(=O)[C@]21CO1`, the TGI in test [1], in test [2], in test [3], in [4], in test [5] and in test [6] was greater than 100 µM in each case. For the same compound, the TGI is greater than 100 µM in [7]; greater than 100 µM in [8]; greater than 100 µM in test [9]; 45.1 µM in [10]; greater than 100 µM in [11]; greater than 100 µM in test [12]. In [13], this compound came in with a TGI greater than 100 µM.

With `O=[N+]([O-])c1ccc(C2NC(=S)NC3c4cc([N+](=O)[O-])ccc4CCCC23)cc1` (stereo not drawn), the TGI in [1], in [2], in test [3], in test [4], in [5] and in test [6] was greater than 100 µM each time. Further, the TGI in test [7], in [8], in [9], in [10], in [11] and in test [12] was greater than 100 µM in each case. In addition, the TGI in test [13] was greater than 100 µM.

For `O=C1NC(NNc2ccccc2)=N/C1=C\c1ccco1`, the TGI was 25.9 µM in [1]; greater than 100 µM in test [2]; 42.9 µM in test [3]; 33 µM in test [4]; 34 µM in test [5]; 54.6 µM in test [6]. Besides, the TGI in [7] is 54.7 µM; in [8], 47.6 µM; in test [9], greater than 100 µM; in test [10] it was 55 µM; in [11], 27.8 µM; in test [12], greater than 100 µM. The TGI in test [13] turned out to be 55.2 µM.

For `CC(C)C1CCC(=O)CC1CCCCC1CC(=O)CC1O[Si](C)(C)C(C)(C)C` (stereo not drawn), the TGI in [1] was 15.2 µM; in test [2], greater than 22.2 µM; in test [3], 39.1 µM; in [4] it was 19.3 µM; in [5] it was 8.24 µM; in [6], 7.93 µM. The TGI in [7] was 40.5 µM; in [8], 10.9 µM; in test [9] it was 5.5 µM; in [10], greater than 100 µM; in test [11], 4.02 µM; in test [12], 25.7 µM. In [13], this compound registered a TGI of 20.2 µM.

Regarding `S=C1C(CCCOCc2ccccc2)C2CCCC23CC2(CCN13)OCCS2` (stereo not drawn), the TGI in [1], in [2], in test [3], in test [4], in test [5] and in test [6] was greater than 10 µM in each case. Moreover, the TGI in test [7], in test [8], in test [9], in test [10], in test [11] and in test [12] was greater than 10 µM throughout. For the same compound, the TGI in [13] is greater than 10 µM.

Regarding `CCOC(=O)NC(C(F)(F)F)(C(F)(F)F)P(=O)(OCC)OCC`, the TGI in test [1], in test [2], in [3], in test [4], in [5] and in test [6] was greater than 100 µM each time. Moreover, the TGI in test [7] was greater than 100 µM; in test [8], greater than 100 µM; in test [9] it was 97.9 µM; in test [10], greater than 100 µM; in test [11] it was 36.9 µM; in [12] it was greater than 100 µM. In addition, the TGI in test [13] worked out at 85.5 µM.

Take `COC(=O)N1C2C(C[C@@]1(C)C(=O)OC)c1ccccc1N2S(=O)(=O)c1ccccc1` (stereo partly drawn): the TGI in [1], in test [2], in test [3], in test [4], in [5] and in [6] was greater than 100 µM throughout. Also, the TGI in test [7], in [8], in test [9], in test [10], in test [11] and in [12] was greater than 100 µM throughout. In [13], this compound had a TGI greater than 100 µM.

In the case of `C[C@@]12C[C@@H](c3ccccc3O1)N1CCCSC1=N2`, the TGI in [1], in test [2], in [3], in test [4], in [5] and in [6] was greater than 100 µM each time. Moreover, the TGI in test [7], in test [8], in [9], in test [10], in test [11] and in [12] was greater than 100 µM throughout. The TGI in test [13] is greater than 100 µM.

`CC1=C(C(=O)NNC(=O)c2ccccc2O)CC(C(=O)NNC(=O)c2ccccc2O)=C(C)N1`: the TGI in test [1] is greater than 88.7 µM; in [2] it was greater than 35.5 µM; in [3], greater than 93.5 µM; in test [4] it was greater than 100 µM; in test [5], greater than 35.4 µM; in test [6], greater than 100 µM. Moreover, the TGI in test [7] was greater than 27.9 µM; in test [8] it was greater than 100 µM; in test [9], greater than 100 µM; in test [10], greater than 100 µM; in test [11] it was greater than 26.7 µM; in [12], greater than 100 µM. The same compound yielded a TGI in [13] of 18.8 µM.

For `COc1cccc(C2c3cc4c(cc3OC(NNC(N)=O)C2C)OCO4)c1OC` (stereo not drawn), the TGI was greater than 100 µM in test [1]; greater than 100 µM in [2]; 83.1 µM in test [3]; greater than 100 µM in test [4]; 83.2 µM in [5]; 62 µM in test [6]. The TGI is 81.6 µM in test [7]; 70.1 µM in test [8]; 66.8 µM in [9]; 68 µM in test [10]; 61.5 µM in test [11]; 85.3 µM in [12]. In test [13], the TGI worked out at 86 µM.

As for `O=C(N/N=C\c1ccc(Cl)cc1)Nc1cccc2ccccc12`, the TGI in test [1] is 4.92 µM; in [2], greater than 31.9 µM; in test [3], greater than 100 µM; in test [4], greater than 100 µM; in test [5] it was greater than 25.8 µM; in [6] it was greater than 23 µM. Further, the TGI in test [7] is greater than 59.1 µM; in test [8], 6.67 µM; in [9] it was greater than 43.7 µM; in test [10], 10.2 µM; in [11], greater than 31.5 µM; in test [12], 6.75 µM. In test [13], the TGI was 4.84 µM.

Regarding `CCOC(=O)c1c(Br)c(-c2ccc([N+](=O)[O-])cc2)c(Br)n1C`, the TGI in test [1], in test [2], in [3], in test [4], in [5] and in test [6] was greater than 10 µM throughout. For the same compound, the TGI in test [7], in test [8], in test [9], in test [10], in [11] and in [12] was greater than 10 µM each time. Further, the TGI in test [13] was greater than 10 µM.

Regarding `COc1ccc2nc3c([N+](=O)[O-])ccc4c3c(c2c1)N=CN4CCN(C)C`, the TGI in [1] is 16.6 µM; in test [2], 9.76 µM; in test [3] it was 15.8 µM; in test [4], 20.3 µM; in test [5], 13.2 µM; in test [6], 15.6 µM. For the same compound, the TGI in test [7] was 10.7 µM; in test [8] it was 25.9 µM; in [9] it was 6.73 µM; in test [10] it was greater than 34.1 µM; in [11], 9.68 µM; in test [12], 28.9 µM. In test [13], this compound yielded a TGI of 11.6 µM.

Turning to `Cc1cc(S(=O)(=O)Nc2nnc3c(Cl)cc(C(F)(F)F)cn23)c(S)cc1Cl`, the TGI in [1], in test [2], in test [3], in test [4], in test [5] and in test [6] was greater than 100 µM in each case. The TGI in test [7], in [8], in test [9], in [10], in test [11] and in test [12] was greater than 100 µM in each case. In [13], this compound displayed a TGI greater than 100 µM.

Consider `CCCCCCc1cc2cc(-c3cn4ccccc4n3)c(=O)oc2cc1O`, for which the TGI in [1] was 38.1 µM; in test [2], greater than 100 µM; in test [3], 19.3 µM; in [4], 47.2 µM; in [5], 27.7 µM; in test [6], greater than 67.9 µM. In addition, the TGI is 9.7 µM in test [7]; 20.6 µM in [8]; greater than 63.3 µM in test [9]; 36.1 µM in test [10]; 15.1 µM in test [11]; 26.5 µM in [12]. For the same compound, the TGI in test [13] was 20.7 µM.

`CC(=O)c1sc2c(c1OC(=O)c1ccccc1)c(=O)n(-c1ccccc1)c(=S)n2-c1ccccc1`: the TGI in test [1] is 12.6 µM; in [2] it was 5.83 µM; in test [3], 79 µM; in [4], 45.4 µM; in test [5] it was 54.5 µM; in test [6] it was 92.3 µM. Moreover, the TGI in [7] is 22.7 µM; in [8], 28.9 µM; in [9], 8.3 µM; in test [10], greater than 59.5 µM; in test [11] it was 67.8 µM; in [12], greater than 49.9 µM. For the same compound, the TGI in test [13] amounted to 12.6 µM.
